PubChem BioAssay (NCI)
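Tested at 5 concentrations; 48 h exposure; 96-well plates; endpoints linearly interpolated, else capped at highest concentration. TGI is the concentration that stops growth completely.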

Test system: NCI-H23 lung
Test: growth of human tumour cells (NCI), 48 h

| Compound | TGI |
| --- | --- |
| O=C1CCCCC1CN1CCCCC1 (stereo not given) | > 100 µM |
| CCOC(=O)Nc1sc2c(c1C#N)CCCC2 | > 100 µM |
| O=C1CN(c2cccc(Cl)c2)C(=O)CN1CCN1CC(=O)N(c2cccc(Cl)c2)CC1=O | 71.1 µM |
| Nc1nc2c(c(-c3cccc(Cl)c3)n1)COC/C2=C\c1cccc(Cl)c1 | > 100 µM |
| O=C(/C=C/c1ccc2c(c1)OCO2)c1ccc(O)cc1 | 30 µM |
| c1ccc2c(c1)Cn1c-2nc2ccccc21 | > 100 µM |
| Oc1ccc2c(c1)c1c(n2CCN2CCOCC2)-c2ccccc2CC1 | 82.1 µM |

Test system: UACC-257 melanoma
Test: growth of human tumour cells (NCI), 48 h

| Compound | TGI |
| --- | --- |
| CCOC(=O)Nc1sc2c(c1C#N)CCCC2 | > 100 µM |
| O=C1CN(c2cccc(Cl)c2)C(=O)CN1CCN1CC(=O)N(c2cccc(Cl)c2)CC1=O | > 100 µM |
| Nc1nc2c(c(-c3cccc(Cl)c3)n1)COC/C2=C\c1cccc(Cl)c1 | > 100 µM |
| O=C(/C=C/c1ccc2c(c1)OCO2)c1ccc(O)cc1 | 28.8 µM |
| c1ccc2c(c1)Cn1c-2nc2ccccc21 | > 100 µM |
| Oc1ccc2c(c1)c1c(n2CCN2CCOCC2)-c2ccccc2CC1 | > 100 µM |

Test system: CCRF-CEM leukemia
Test: growth of human tumour cells (NCI), 48 h

| Compound | TGI |
| --- | --- |
| O=C1CCCCC1CN1CCCCC1 (stereo not given) | > 100 µM |
| CCOC(=O)Nc1sc2c(c1C#N)CCCC2 | > 100 µM |
| O=C1CN(c2cccc(Cl)c2)C(=O)CN1CCN1CC(=O)N(c2cccc(Cl)c2)CC1=O | > 100 µM |
| Nc1nc2c(c(-c3cccc(Cl)c3)n1)COC/C2=C\c1cccc(Cl)c1 | > 100 µM |
| O=C(/C=C/c1ccc2c(c1)OCO2)c1ccc(O)cc1 | 35.3 µM |
| c1ccc2c(c1)Cn1c-2nc2ccccc21 | > 100 µM |
| Oc1ccc2c(c1)c1c(n2CCN2CCOCC2)-c2ccccc2CC1 | > 100 µM |

Test system: CAKI-1 renal
Test: growth of human tumour cells (NCI), 48 h

| Compound | TGI |
| --- | --- |
| O=C1CCCCC1CN1CCCCC1 (stereo not given) | > 100 µM |
| CCOC(=O)Nc1sc2c(c1C#N)CCCC2 | > 100 µM |
| O=C1CN(c2cccc(Cl)c2)C(=O)CN1CCN1CC(=O)N(c2cccc(Cl)c2)CC1=O | > 100 µM |
| Nc1nc2c(c(-c3cccc(Cl)c3)n1)COC/C2=C\c1cccc(Cl)c1 | > 100 µM |
| O=C(/C=C/c1ccc2c(c1)OCO2)c1ccc(O)cc1 | 28.7 µM |
| c1ccc2c(c1)Cn1c-2nc2ccccc21 | > 100 µM |
| Oc1ccc2c(c1)c1c(n2CCN2CCOCC2)-c2ccccc2CC1 | > 100 µM |

Test system: SF-539 CNS
Test: growth of human tumour cells (NCI), 48 h

| Compound | TGI |
| --- | --- |
| O=C1CCCCC1CN1CCCCC1 (stereo not given) | > 100 µM |
| O=C1CN(c2cccc(Cl)c2)C(=O)CN1CCN1CC(=O)N(c2cccc(Cl)c2)CC1=O | > 100 µM |
| Nc1nc2c(c(-c3cccc(Cl)c3)n1)COC/C2=C\c1cccc(Cl)c1 | > 100 µM |
| O=C(/C=C/c1ccc2c(c1)OCO2)c1ccc(O)cc1 | 32.5 µM |
| c1ccc2c(c1)Cn1c-2nc2ccccc21 | > 100 µM |
| Oc1ccc2c(c1)c1c(n2CCN2CCOCC2)-c2ccccc2CC1 | 44.9 µM |

Test system: KM12 colon
Test: growth of human tumour cells (NCI), 48 h

| Compound | TGI |
| --- | --- |
| O=C1CCCCC1CN1CCCCC1 (stereo not given) | > 100 µM |
| CCOC(=O)Nc1sc2c(c1C#N)CCCC2 | > 100 µM |
| O=C1CN(c2cccc(Cl)c2)C(=O)CN1CCN1CC(=O)N(c2cccc(Cl)c2)CC1=O | > 100 µM |
| Nc1nc2c(c(-c3cccc(Cl)c3)n1)COC/C2=C\c1cccc(Cl)c1 | > 100 µM |
| c1ccc2c(c1)Cn1c-2nc2ccccc21 | > 100 µM |
| Oc1ccc2c(c1)c1c(n2CCN2CCOCC2)-c2ccccc2CC1 | 35.8 µM |

Test system: SW-620 colon
Test: growth of human tumour cells (NCI), 48 h

| Compound | TGI |
| --- | --- |
| O=C1CCCCC1CN1CCCCC1 (stereo not given) | > 100 µM |
| CCOC(=O)Nc1sc2c(c1C#N)CCCC2 | > 100 µM |
| O=C1CN(c2cccc(Cl)c2)C(=O)CN1CCN1CC(=O)N(c2cccc(Cl)c2)CC1=O | > 100 µM |
| Nc1nc2c(c(-c3cccc(Cl)c3)n1)COC/C2=C\c1cccc(Cl)c1 | > 100 µM |
| O=C(/C=C/c1ccc2c(c1)OCO2)c1ccc(O)cc1 | 26.3 µM |
| c1ccc2c(c1)Cn1c-2nc2ccccc21 | > 100 µM |
| Oc1ccc2c(c1)c1c(n2CCN2CCOCC2)-c2ccccc2CC1 | > 100 µM |

Test system: SN12C renal
Test: growth of human tumour cells (NCI), 48 h

| Compound | TGI |
| --- | --- |
| O=C1CCCCC1CN1CCCCC1 (stereo not given) | > 100 µM |
| CCOC(=O)Nc1sc2c(c1C#N)CCCC2 | > 100 µM |
| O=C1CN(c2cccc(Cl)c2)C(=O)CN1CCN1CC(=O)N(c2cccc(Cl)c2)CC1=O | > 100 µM |
| Nc1nc2c(c(-c3cccc(Cl)c3)n1)COC/C2=C\c1cccc(Cl)c1 | > 100 µM |
| O=C(/C=C/c1ccc2c(c1)OCO2)c1ccc(O)cc1 | 29.1 µM |
| c1ccc2c(c1)Cn1c-2nc2ccccc21 | > 100 µM |
| Oc1ccc2c(c1)c1c(n2CCN2CCOCC2)-c2ccccc2CC1 | 95.9 µM |

Test system: MDA-MB-435
Test: growth of human tumour cells (NCI), 48 h

| Compound | TGI |
| --- | --- |
| O=C1CCCCC1CN1CCCCC1 (stereo not given) | > 100 µM |
| CCOC(=O)Nc1sc2c(c1C#N)CCCC2 | > 100 µM |
| O=C1CN(c2cccc(Cl)c2)C(=O)CN1CCN1CC(=O)N(c2cccc(Cl)c2)CC1=O | > 100 µM |
| Nc1nc2c(c(-c3cccc(Cl)c3)n1)COC/C2=C\c1cccc(Cl)c1 | > 100 µM |
| O=C(/C=C/c1ccc2c(c1)OCO2)c1ccc(O)cc1 | 34.1 µM |
| c1ccc2c(c1)Cn1c-2nc2ccccc21 | > 100 µM |

Test system: HCC-2998 colon
Test: growth of human tumour cells (NCI), 48 h

| Compound | TGI |
| --- | --- |
| O=C1CCCCC1CN1CCCCC1 (stereo not given) | > 100 µM |
| CCOC(=O)Nc1sc2c(c1C#N)CCCC2 | > 100 µM |
| O=C1CN(c2cccc(Cl)c2)C(=O)CN1CCN1CC(=O)N(c2cccc(Cl)c2)CC1=O | > 100 µM |
| Nc1nc2c(c(-c3cccc(Cl)c3)n1)COC/C2=C\c1cccc(Cl)c1 | > 100 µM |
| O=C(/C=C/c1ccc2c(c1)OCO2)c1ccc(O)cc1 | 32.1 µM |
| c1ccc2c(c1)Cn1c-2nc2ccccc21 | > 100 µM |

Test system: NCI/ADR-RES ovarian
Test: growth of human tumour cells (NCI), 48 h

| Compound | TGI |
| --- | --- |
| O=C1CCCCC1CN1CCCCC1 (stereo not given) | > 100 µM |
| Nc1nc2c(c(-c3cccc(Cl)c3)n1)COC/C2=C\c1cccc(Cl)c1 | > 100 µM |
| O=C(/C=C/c1ccc2c(c1)OCO2)c1ccc(O)cc1 | 3.52 µM |
| c1ccc2c(c1)Cn1c-2nc2ccccc21 | > 100 µM |
| Oc1ccc2c(c1)c1c(n2CCN2CCOCC2)-c2ccccc2CC1 | 74.2 µM |

Test system: MOLT-4 leukemia
Test: growth of human tumour cells (NCI), 48 h

| Compound | TGI |
| --- | --- |
| O=C1CCCCC1CN1CCCCC1 (stereo not given) | > 100 µM |
| CCOC(=O)Nc1sc2c(c1C#N)CCCC2 | > 100 µM |
| O=C1CN(c2cccc(Cl)c2)C(=O)CN1CCN1CC(=O)N(c2cccc(Cl)c2)CC1=O | > 100 µM |
| Nc1nc2c(c(-c3cccc(Cl)c3)n1)COC/C2=C\c1cccc(Cl)c1 | > 100 µM |
| c1ccc2c(c1)Cn1c-2nc2ccccc21 | > 100 µM |
| Oc1ccc2c(c1)c1c(n2CCN2CCOCC2)-c2ccccc2CC1 | > 100 µM |

Test system: OVCAR-5 ovarian
Test: growth of human tumour cells (NCI), 48 h

| Compound | TGI |
| --- | --- |
| O=C1CCCCC1CN1CCCCC1 (stereo not given) | > 100 µM |
| CCOC(=O)Nc1sc2c(c1C#N)CCCC2 | > 100 µM |
| O=C1CN(c2cccc(Cl)c2)C(=O)CN1CCN1CC(=O)N(c2cccc(Cl)c2)CC1=O | > 100 µM |
| Nc1nc2c(c(-c3cccc(Cl)c3)n1)COC/C2=C\c1cccc(Cl)c1 | > 100 µM |
| O=C(/C=C/c1ccc2c(c1)OCO2)c1ccc(O)cc1 | 35.1 µM |
| c1ccc2c(c1)Cn1c-2nc2ccccc21 | > 100 µM |
| Oc1ccc2c(c1)c1c(n2CCN2CCOCC2)-c2ccccc2CC1 | 60.5 µM |

Test system: SK-OV-3 ovarian
Test: growth of human tumour cells (NCI), 48 h

| Compound | TGI |
| --- | --- |
| O=C1CCCCC1CN1CCCCC1 (stereo not given) | > 100 µM |
| CCOC(=O)Nc1sc2c(c1C#N)CCCC2 | > 100 µM |
| O=C1CN(c2cccc(Cl)c2)C(=O)CN1CCN1CC(=O)N(c2cccc(Cl)c2)CC1=O | > 100 µM |
| Nc1nc2c(c(-c3cccc(Cl)c3)n1)COC/C2=C\c1cccc(Cl)c1 | > 100 µM |
| O=C(/C=C/c1ccc2c(c1)OCO2)c1ccc(O)cc1 | 35.1 µM |
| c1ccc2c(c1)Cn1c-2nc2ccccc21 | > 100 µM |
| Oc1ccc2c(c1)c1c(n2CCN2CCOCC2)-c2ccccc2CC1 | > 100 µM |

Test system: OVCAR-3 ovarian
Test: growth of human tumour cells (NCI), 48 h

| Compound | TGI |
| --- | --- |
| O=C1CCCCC1CN1CCCCC1 (stereo not given) | > 100 µM |
| CCOC(=O)Nc1sc2c(c1C#N)CCCC2 | > 100 µM |
| O=C1CN(c2cccc(Cl)c2)C(=O)CN1CCN1CC(=O)N(c2cccc(Cl)c2)CC1=O | > 100 µM |
| Nc1nc2c(c(-c3cccc(Cl)c3)n1)COC/C2=C\c1cccc(Cl)c1 | > 100 µM |
| O=C(/C=C/c1ccc2c(c1)OCO2)c1ccc(O)cc1 | 28.9 µM |
